Assay results taken from patent US11311523B2, “Pyridinone compound and use thereof” (KYUSHU UNIVERSITY, NATIONAL UNIVERSITY CORPORATION, priority 2015, dated 2022).

Key:
[1] = tested on: 3LL cells; experiment: inhibition of macropinocytosis (TMR-dextran uptake); format: cell-based, mouse
Procedure: Pharmacological Test 5 (Experiment of Inhibition of Macropinocytosis of Cancer Cells)
Macropinocytosis is a phenomenon in which cells take up various substances together with extracellular fluid while extending cellular membranes. Remodeling of actin cytoskeleton through Rac activity is known to be important.
One hundred and fifty microliters of 4×10^4 3LL cells or HT-1080 cells were seeded on the glass portion of fibronectin-coated glass-bottom culture dishes. After 16-hour culture at 37° C., the medium was changed to DMEM (serum free) and cultured for 24 hours to allow the cells to be serum-starved. Subsequently, the medium was changed to 2 mL of serum-free medium containing DMSO alone or DMSO in which each pyridinone compound was dissolved, followed by pretreatment for 1 hour. The final concentration of DMSO was adjusted to 0.2%.
The cells were added to 180 μL of medium with TMR-dextran (final concentration: 500 μg/mL)-containing DMEM (with 10% FBS) containing DMSO alone or DMSO in which a predetermined concentration of each pyridinone compound was dissolved, as in the case above, followed by incubation at 37° C. for 1 hour. Thereafter, the cells were fixed by 60-minute incubation at room temperature in a 4% paraformaldehyde solution. […] The macropinocytosis activity was measured based on the number of TMR-dextran spots per cell. […]

[2] = tested on: mouse spleen T cells; experiment: T lymphocyte migration towards CCL21 (Transwell); format: cell-based; conditions: FIG. 16(A)
Description: Pharmacological Test. 6 (Evaluation on T Lymphocyte Migration)
Lymphocyte migration plays key roles in immune responses. T cell stimulation by chemokines, such as CCL21, induces actin cytoskeletal remodeling through Rac activation. This drives the cells to migrate towards the source of chemokines.
Therefore, the use of various pyridinone compounds in this assay system enables cell-level verification of DOCK1 selectivity.
Mouse spleen cells at a cell concentration of 1×10^7 cells/mL were precultured at 37° C. for 1 hour in 0.5% BSA-containing RPMI-1640 (Transwell medium) containing DMSO alone or DMSO in which each pyridinone compound was dissolved at a predetermined concentration.
Subsequently, 500 μL of Transwell medium containing 300 ng/mL of CCL21 and DMSO in which each pyridinone compound was dissolved at a predetermined concentration was added to a 24-well plate. […]
After 2-hour incubation at 37° C., the cells that migrated to the lower chamber were collected and stained with PE-labeled anti-Thy1.2 antibody (53-2-1, BD Pharmingen) and APC-labeled anti-B220 antibody (RA-6B-2, eBioscience). The percentage (%) of the migrated cells was calculated by dividing the number of Thy1.2^+ cells (T cells) in the lower chamber by the number of Thy1.2^+ cells (T cells) placed into the Transwell inserts. […]

Q: Which results are given for `O=C(Cn1cc(S(=O)(=O)N2CCCC2)ccc1=O)c1ccc(-c2cccc(C(F)(F)F)c2)cc1` [TS-45, 1-(2-oxo-2-(3′-(trifluoromethyl)-[1,1′-biphenyl]-4-yl)ethyl)-5-(pyrrolidin-1-ylsulfonyl)pyridin-2(1H)-one]?
A: inhibition of macropinocytosis [1]: inhibit macropinocytosis in 3LL cells and HT-1080 cells in a concentration-dependent manner; CCL21-stimulated T cell migration [2]: did not affect

Q: With `O=C(Cn1cc(S(=O)(=O)N2CCCC2)ccc1=O)c1ccc(-c2ccc3ccccc3c2)cc1` [TS-28, 1-(2-(4-(naphthalen-2-yl)phenyl)-2-oxoethyl)-5-(pyrrolidin-1-ylsulfonyl)pyridin-2(1H)-one] as the molecule, how does the inhibition of macropinocytosis [1] read?
A: inhibit macropinocytosis in 3LL cells and HT-1080 cells in a concentration-dependent manner

Q: And the “CCL21-stimulated T cell migration” value [2]?
A: did not affect
